These results are taken from paper PMC7355801, “Synthesis, Cyclooxygenases Inhibition Activities and Interactions with BSA of N-substituted 1H-pyrrolo[3,4-c]pyridine-1,3(2H)-diones Derivatives” (Molecules, 2020).

Assay [1] has as its target T1, COX-1 (Ovis aries, UniProt P05979).
T1 construct: gene PTGS1; homodimer
T1 sequence (P05979 25-600): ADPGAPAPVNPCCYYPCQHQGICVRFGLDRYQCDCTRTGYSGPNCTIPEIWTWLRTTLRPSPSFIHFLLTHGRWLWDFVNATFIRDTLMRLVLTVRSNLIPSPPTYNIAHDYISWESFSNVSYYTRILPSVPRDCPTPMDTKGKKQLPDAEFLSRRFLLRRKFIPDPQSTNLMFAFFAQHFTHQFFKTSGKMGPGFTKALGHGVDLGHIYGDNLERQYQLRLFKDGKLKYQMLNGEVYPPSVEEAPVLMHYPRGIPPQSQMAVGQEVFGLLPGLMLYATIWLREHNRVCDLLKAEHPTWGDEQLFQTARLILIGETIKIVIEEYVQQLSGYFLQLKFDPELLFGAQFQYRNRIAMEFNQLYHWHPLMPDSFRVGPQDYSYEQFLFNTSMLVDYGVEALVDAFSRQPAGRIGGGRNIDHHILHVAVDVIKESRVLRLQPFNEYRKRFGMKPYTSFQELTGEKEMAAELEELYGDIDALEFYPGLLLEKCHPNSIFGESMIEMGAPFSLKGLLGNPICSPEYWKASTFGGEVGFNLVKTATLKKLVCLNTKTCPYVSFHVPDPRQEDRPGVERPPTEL
Nature of the assay: colorimetric COX peroxidase inhibition kit, […] nm. The conditions noted are these: read-out: Cyclooxygenase Inhibition Assay IC50 [μM] / COX-1. It counts as biochemical.

Assay [2] deals with T2, bovine serum albumin (BSA) (Bos taurus, UniProt P02769).
T2 construct: gene ALB; mature serum albumin, 583 residues, monomer
Briefly: intrinsic fluorescence quenching, excitation […] nm. The conditions noted are these: 298 K, pH 7.4, no site marker. In kind it is binding.

Structures are written as SMILES.

T2 sequence (P02769 25-607): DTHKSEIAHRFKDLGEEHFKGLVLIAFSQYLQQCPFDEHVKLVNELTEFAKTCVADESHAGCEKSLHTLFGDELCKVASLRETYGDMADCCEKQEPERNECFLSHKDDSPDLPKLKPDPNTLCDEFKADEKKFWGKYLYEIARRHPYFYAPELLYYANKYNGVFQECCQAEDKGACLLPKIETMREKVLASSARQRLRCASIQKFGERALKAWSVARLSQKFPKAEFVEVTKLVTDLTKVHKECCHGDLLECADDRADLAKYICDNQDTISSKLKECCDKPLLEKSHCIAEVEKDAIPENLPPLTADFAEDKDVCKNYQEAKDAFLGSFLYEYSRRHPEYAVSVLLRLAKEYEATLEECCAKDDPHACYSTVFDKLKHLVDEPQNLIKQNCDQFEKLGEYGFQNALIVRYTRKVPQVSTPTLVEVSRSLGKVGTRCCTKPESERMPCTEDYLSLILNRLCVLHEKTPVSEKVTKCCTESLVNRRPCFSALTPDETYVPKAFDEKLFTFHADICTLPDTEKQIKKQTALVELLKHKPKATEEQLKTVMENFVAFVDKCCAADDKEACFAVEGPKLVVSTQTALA

Regarding `Cc1cc2c(c(=O)n1C)C(=O)N(CN1CCN(c3ccccc3)CC1)C2=O` [A, 5,6-dimethyl-4-oxo-2-[(4-phenyl-1-piperazinyl)methyl]-1H-pyrrolo[3.4-c]pyridine-1,3(2H)-dione], in assay [1], the IC50 stood at 81.6 µM. Moreover, the “Double log / Kb × 10^3 [dm^3.mol^-1]” value in assay [2] is 5.37 × 10^3 dm^3·mol^−1.
`COc1ccccc1N1CCN(CN2C(=O)c3cc(C)n(C)c(=O)c3C2=O)CC1` [C]: in assay [1], the IC50 stood at 95.8 µM. Further, in assay [2], the “Double log / Kb × 10^3 [dm^3.mol^-1]” value was 11.51 × 10^3 dm^3·mol^−1.
Turning to `Cc1cc2c(c(=O)n1C)C(=O)N(CN1CCN(c3cccc(C(F)(F)F)c3)CC1)C2=O` [B], the IC50 in assay [1] was determined as 93.2 µM. For the same compound, the “Double log / Kb × 10^3 [dm^3.mol^-1]” value in assay [2] was 8.32 × 10^3 dm^3·mol^−1.
As to `COc1nc(C)cc2c1C(=O)N(CCN1CCOCC1)C2=O` [E], the IC50 in assay [1] amounted to 99.2 µM. For the same compound, the “Double log / Kb × 10^3 [dm^3.mol^-1]” value in assay [2] is recorded as 6.24 × 10^3 dm^3·mol^−1.
Taken in the same sequence, the figures for `COc1nc(C)cc2c1C(=O)N(CN1CCCC1)C2=O` [D, 4-Methoxy–N-[1-(N-pyrrolidine)-methyl]-6-methyl-1H-pyrrolo[3.4-c]pyridine-1,3(2H)-dione] were 76.6 µM and 4.82 × 10^3 dm^3·mol^−1.
